Article PMC4792576, “Formononetin, a novel FGFR2 inhibitor, potently inhibits angiogenesis and tumor growth in preclinical models” (Oncotarget, 2015)

Key:
FGFR2 = molecular target: T1, FGFR2 (Homo sapiens, UniProt P21802); test: in vitro FGFR2 kinase assay (CycLex kit / Z'-lyte FRET), dose response; radiometric panel […] at […]; format: biochemical
T1 construct: kinase domains of FGFR2

FGFR1 = FGFR1 (Homo sapiens, UniProt P11362); test: radiometric kinase panel (Millipore), single concentration […]; format: biochemical; conditions: read-out: Inhibition rate at 1 μM (%)
Sequence of FGFR1 (P11362 22-822): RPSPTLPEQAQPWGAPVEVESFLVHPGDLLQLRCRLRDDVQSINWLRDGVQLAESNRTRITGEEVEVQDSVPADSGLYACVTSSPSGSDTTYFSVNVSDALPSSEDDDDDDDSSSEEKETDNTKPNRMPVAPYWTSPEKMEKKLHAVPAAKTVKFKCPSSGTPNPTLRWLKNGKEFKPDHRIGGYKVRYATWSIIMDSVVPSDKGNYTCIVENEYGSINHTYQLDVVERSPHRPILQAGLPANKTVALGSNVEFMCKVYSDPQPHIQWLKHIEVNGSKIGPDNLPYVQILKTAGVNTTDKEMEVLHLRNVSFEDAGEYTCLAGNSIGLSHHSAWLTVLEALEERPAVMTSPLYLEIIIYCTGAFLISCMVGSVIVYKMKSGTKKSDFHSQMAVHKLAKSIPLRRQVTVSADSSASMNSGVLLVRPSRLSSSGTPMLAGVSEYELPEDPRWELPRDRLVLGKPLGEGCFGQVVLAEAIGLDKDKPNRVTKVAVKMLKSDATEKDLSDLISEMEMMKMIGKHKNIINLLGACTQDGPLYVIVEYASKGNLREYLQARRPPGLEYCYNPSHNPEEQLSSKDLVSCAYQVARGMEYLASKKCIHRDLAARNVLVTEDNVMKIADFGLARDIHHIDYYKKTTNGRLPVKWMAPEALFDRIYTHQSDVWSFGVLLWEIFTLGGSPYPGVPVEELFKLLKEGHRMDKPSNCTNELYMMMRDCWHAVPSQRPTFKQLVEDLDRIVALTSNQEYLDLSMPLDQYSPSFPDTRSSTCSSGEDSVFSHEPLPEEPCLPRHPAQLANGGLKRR

T1 sequence (P21802 458-768 limits assumed): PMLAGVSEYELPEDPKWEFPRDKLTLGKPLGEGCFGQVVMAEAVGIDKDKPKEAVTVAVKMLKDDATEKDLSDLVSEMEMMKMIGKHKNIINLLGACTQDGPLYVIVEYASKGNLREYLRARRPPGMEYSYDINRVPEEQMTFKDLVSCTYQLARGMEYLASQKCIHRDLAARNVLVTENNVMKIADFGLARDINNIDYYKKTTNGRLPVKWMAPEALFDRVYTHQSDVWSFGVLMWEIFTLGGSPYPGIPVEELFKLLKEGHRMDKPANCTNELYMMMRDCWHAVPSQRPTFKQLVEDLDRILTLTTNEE

- IC50 (FGFR2): ~4.31 µM
- inhibition at 1 µM (FGFR1): 57 ± 4%
Compound: COc1ccc(-c2coc3cc(O)ccc3c2=O)cc1 [formononetin]
